The results in this text go back to patent US9067894B1, “Compound, composition, and method of activating GIRK potassium channel and use of same for treating conditions of interest” (Vanderbilt University, priority 2013, dated 2015).

A short description of one data set: Rotarod test. The format is in vivo, mouse. The conditions noted are these: mice, 60 mg/kg i.p. The protocol: For rotarod tests, a rotarod module was inserted into a mouse home cage and was operated by the SmartCage™ (AfaSci, Inc., Redwood City, Calif.) system28. A mouse was placed on the rod and the rod began to rotate at a fixed speed (15 rpm). Latencies for the mice to fall off the rod were recorded. […] Two groups of mice (n=8 mice/group) were trained on the rotarod over 4 consecutive days. On training days, each mouse was allowed to perform on the rotarod a total of 4 times. For each training day, each mouse's lowest rotarod latency was excluded. The remaining 3 rotarod latencies were averaged and served as the mouse's rotarod performance for that training day. […] Approximately 1 hour post-drug/vehicle injection, each mouse's rotarod performance was assessed a total of 4 times with the mouse's worst performance being excluded. The remaining 3 rotarod latencies were then averaged for each mouse and these values were normalized to the mouse's previous performance on the final training day to account for variation in individual animal's competency on the rotarod.

A short description of data set [1]: Maximal electroshock (MES) model of epilepsy. The format is in vivo, mouse. The conditions noted are these: mice, i.p.; VU0456810 60 mg/kg, sodium valproate 150 mg/kg; vs vehicle. On the procedure:
MES stimulation was applied, 30 minutes after injection, through transauricular (ear-clip) electrodes from an electroshock apparatus, HSE Shock Stimulator Type 221, (Harvard Apparatus, Holliston, Mass.) using the following parameters: 100-mA fixed current, a 50-60-Hz pulse frequency, a 0.6-ms pulse width and a 0.3-s stimulus duration. Animals were restrained by hand when applying the electrodes and released at the moment of stimulation to permit observation of the seizure throughout its entire course. Upon completion of the electrical stimulus, the amount of time until death was recorded. […] In this modified MES test, the electrical stimulus that was applied was sufficient to induce seizures and death from maximal seizure in 100% of the control mice.
In all cases, experiments were conducted in a blind manner with respect to the experimenters. Data were evaluated in Excel using one-tailed, unpaired Student's t-test, assuming populations with unequal variance.

The target in the next data set is T1, Adrenergic α1B (Rattus norvegicus, UniProt P15823).
T1 construct: Ricerca (contract assay)
Briefly: Radioligand displacement (Ricerca). It counts as binding.

A further data set addresses T2, Adrenergic β2 (Homo sapiens, UniProt P07550).
T2 construct: Ricerca
Kind of data set: Radioligand displacement (Ricerca). The format is binding.

A further data set deals with T3, Andreogen (Rattus norvegicus, UniProt P15207).
T3 construct: Ricerca
Briefly: Radioligand displacement (Ricerca). It counts as binding.

The test system of data set [2] is L-Type Ca channel (benzothiazepine). Briefly: Radioligand displacement (Ricerca). The format is binding, rat. The conditions noted are these: 10 μM.
Data set [3] has as its system L-Type Ca channel (dihydropyridine). Briefly: Radioligand displacement (Ricerca). It counts as binding, rat. The conditions noted are these: 10 μM.
In another data set the target is T4, N-Type Ca channel (Rattus norvegicus, UniProt Q02294).
T4 construct: Ricerca
Kind of data set: Radioligand displacement (Ricerca). It counts as binding.

A further data set deals with T5, Cannabinoid CB1 (Homo sapiens, UniProt P21554).
T5 construct: Ricerca
Kind of data set: Radioligand displacement (Ricerca). The format is binding.

The next data set concerns the target T6, Dopamine D3 (Homo sapiens, UniProt P35462).
T6 construct: Ricerca
Briefly: Radioligand displacement (Ricerca). The format is binding.

Another data set addresses T7, GABAB1A (Homo sapiens, UniProt Q9UBS5).
T7 construct: Ricerca
Kind of data set: Radioligand displacement (Ricerca). It counts as binding.

The subject of a further data set is Glutamate (NMDA, PCP). Kind of data set: Radioligand displacement (Ricerca). It counts as binding, rat. The note with it: 10 μM.
For a further data set, the target named is T8, Leukotriene (Homo sapiens, UniProt Q9Y271).
T8 construct: Ricerca (contract laboratory that ran the panel)
Kind of data set: Radioligand displacement (Ricerca). It counts as binding.

For a further data set, the target named is T9, Melatonin MT1 (Homo sapiens, UniProt P48039).
T9 construct: Ricerca (contract laboratory that ran the panel)
Kind of data set: Radioligand displacement (Ricerca). It counts as binding.

Data set [4] has as its system Nicotinic acetylcholine. Kind of data set: Radioligand displacement (Ricerca), first nicotinic entry. It counts as binding, human. The conditions noted are these: 10 μM; first Nicotinic acetylcholine line.
Data set [5] deals with Nicotinic acetylcholine. Kind of data set: Radioligand displacement (Ricerca), second nicotinic entry. It counts as binding, human. The conditions noted are these: 10 μM; second Nicotinic acetylcholine line.
A further data set addresses T10, Opiate (KOP) (Homo sapiens, UniProt P41145).
T10 construct: Ricerca (contract laboratory that ran the panel)
Briefly: Radioligand displacement (Ricerca). It counts as binding.

For the next data set, the target named is T11, Opiate (MOP) (Homo sapiens, UniProt P35372).
T11 construct: Ricerca (contract laboratory that ran the panel)
Kind of data set: Radioligand displacement (Ricerca). It counts as binding.

A further data set deals with T12, Sigma σl (Homo sapiens, UniProt Q99720).
T12 construct: Ricerca (contract panel)
Briefly: Radioligand displacement (Ricerca). It counts as binding.

A further data set concerns Thyroid hormone. Briefly: Radioligand displacement (Ricerca). The note with it: 10 μM. The format is binding, human.
In the next data set the target is T13, Transporter, DAT (Homo sapiens, UniProt Q01959).
T13 construct: Ricerca (contract panel)
Kind of data set: Radioligand displacement (Ricerca). It counts as binding.

Entries after “also recorded” stand apart in the source; their conditions may differ.

T12 sequence (Q99720 whole entry): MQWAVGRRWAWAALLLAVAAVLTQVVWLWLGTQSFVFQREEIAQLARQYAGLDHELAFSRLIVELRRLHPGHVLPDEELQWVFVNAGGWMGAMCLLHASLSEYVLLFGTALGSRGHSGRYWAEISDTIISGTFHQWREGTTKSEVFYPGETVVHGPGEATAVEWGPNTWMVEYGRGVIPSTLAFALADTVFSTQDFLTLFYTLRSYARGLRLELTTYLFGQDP
T6 sequence (P35462 whole entry): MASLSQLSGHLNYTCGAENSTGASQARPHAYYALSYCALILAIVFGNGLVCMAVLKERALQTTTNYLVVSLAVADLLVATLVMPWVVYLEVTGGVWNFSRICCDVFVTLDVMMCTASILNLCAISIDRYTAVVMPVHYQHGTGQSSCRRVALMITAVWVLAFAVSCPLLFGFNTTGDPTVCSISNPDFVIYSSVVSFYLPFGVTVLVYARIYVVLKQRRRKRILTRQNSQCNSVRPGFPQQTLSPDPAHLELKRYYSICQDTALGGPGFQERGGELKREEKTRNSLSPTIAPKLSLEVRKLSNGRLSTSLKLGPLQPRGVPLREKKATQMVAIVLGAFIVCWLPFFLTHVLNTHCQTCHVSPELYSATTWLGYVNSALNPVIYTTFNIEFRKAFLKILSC
T2 sequence (P07550 whole entry): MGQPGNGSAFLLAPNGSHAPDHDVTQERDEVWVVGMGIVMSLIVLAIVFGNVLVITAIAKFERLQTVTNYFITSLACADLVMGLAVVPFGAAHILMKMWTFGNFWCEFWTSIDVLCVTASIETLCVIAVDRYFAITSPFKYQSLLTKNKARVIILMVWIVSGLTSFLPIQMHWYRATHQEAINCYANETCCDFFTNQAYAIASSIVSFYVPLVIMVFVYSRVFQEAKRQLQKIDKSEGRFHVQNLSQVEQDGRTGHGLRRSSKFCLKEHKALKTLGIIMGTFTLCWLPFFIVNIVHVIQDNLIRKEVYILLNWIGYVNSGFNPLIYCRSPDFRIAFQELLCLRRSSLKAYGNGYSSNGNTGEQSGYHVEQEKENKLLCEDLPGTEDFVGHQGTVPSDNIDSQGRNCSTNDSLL
T8 sequence (Q9Y271 whole entry): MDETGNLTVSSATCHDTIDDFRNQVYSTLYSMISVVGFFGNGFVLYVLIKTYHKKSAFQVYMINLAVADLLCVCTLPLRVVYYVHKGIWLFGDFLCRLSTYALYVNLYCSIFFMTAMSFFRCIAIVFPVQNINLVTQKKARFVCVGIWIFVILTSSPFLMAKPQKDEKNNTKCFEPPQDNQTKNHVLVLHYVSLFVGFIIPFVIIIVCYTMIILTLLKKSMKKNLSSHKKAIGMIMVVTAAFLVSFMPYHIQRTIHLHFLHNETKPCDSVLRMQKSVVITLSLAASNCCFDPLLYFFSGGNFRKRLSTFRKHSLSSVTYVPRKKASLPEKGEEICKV
T11 sequence (P35372 whole entry): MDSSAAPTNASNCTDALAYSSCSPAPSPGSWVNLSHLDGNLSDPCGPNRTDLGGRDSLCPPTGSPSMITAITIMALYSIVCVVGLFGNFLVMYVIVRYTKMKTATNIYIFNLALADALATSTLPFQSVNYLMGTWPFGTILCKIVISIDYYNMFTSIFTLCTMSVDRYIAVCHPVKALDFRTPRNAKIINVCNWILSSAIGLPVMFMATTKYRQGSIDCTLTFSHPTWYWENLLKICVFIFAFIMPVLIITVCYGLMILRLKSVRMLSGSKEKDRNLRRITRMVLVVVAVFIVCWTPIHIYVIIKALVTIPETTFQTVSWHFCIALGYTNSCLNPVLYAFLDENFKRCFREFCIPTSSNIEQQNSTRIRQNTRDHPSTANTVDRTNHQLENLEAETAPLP
T5 sequence (P21554 whole entry): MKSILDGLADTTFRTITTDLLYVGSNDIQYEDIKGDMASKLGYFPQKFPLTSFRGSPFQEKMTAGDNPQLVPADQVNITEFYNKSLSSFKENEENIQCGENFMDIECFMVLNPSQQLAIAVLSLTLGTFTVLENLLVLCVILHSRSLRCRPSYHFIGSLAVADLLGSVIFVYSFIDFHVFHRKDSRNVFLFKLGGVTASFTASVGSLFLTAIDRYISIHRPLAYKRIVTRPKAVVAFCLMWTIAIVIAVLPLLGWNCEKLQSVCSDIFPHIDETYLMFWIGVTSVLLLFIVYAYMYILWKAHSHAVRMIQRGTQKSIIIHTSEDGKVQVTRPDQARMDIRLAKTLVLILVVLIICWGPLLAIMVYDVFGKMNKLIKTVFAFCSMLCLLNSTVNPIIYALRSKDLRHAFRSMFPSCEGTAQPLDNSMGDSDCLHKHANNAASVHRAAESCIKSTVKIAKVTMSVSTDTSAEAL
T10 sequence (P41145 whole entry): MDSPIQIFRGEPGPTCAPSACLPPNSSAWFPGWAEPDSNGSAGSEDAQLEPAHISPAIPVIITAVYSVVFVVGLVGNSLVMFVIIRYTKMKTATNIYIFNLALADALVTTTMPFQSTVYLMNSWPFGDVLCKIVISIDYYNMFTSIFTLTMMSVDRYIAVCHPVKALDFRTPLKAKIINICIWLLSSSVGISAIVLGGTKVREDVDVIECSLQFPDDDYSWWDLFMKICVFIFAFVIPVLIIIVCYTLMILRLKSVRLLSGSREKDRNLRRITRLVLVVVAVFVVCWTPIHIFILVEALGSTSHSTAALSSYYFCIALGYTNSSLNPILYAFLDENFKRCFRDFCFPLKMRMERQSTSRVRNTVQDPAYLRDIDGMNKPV
T4 sequence (Q02294 whole entry): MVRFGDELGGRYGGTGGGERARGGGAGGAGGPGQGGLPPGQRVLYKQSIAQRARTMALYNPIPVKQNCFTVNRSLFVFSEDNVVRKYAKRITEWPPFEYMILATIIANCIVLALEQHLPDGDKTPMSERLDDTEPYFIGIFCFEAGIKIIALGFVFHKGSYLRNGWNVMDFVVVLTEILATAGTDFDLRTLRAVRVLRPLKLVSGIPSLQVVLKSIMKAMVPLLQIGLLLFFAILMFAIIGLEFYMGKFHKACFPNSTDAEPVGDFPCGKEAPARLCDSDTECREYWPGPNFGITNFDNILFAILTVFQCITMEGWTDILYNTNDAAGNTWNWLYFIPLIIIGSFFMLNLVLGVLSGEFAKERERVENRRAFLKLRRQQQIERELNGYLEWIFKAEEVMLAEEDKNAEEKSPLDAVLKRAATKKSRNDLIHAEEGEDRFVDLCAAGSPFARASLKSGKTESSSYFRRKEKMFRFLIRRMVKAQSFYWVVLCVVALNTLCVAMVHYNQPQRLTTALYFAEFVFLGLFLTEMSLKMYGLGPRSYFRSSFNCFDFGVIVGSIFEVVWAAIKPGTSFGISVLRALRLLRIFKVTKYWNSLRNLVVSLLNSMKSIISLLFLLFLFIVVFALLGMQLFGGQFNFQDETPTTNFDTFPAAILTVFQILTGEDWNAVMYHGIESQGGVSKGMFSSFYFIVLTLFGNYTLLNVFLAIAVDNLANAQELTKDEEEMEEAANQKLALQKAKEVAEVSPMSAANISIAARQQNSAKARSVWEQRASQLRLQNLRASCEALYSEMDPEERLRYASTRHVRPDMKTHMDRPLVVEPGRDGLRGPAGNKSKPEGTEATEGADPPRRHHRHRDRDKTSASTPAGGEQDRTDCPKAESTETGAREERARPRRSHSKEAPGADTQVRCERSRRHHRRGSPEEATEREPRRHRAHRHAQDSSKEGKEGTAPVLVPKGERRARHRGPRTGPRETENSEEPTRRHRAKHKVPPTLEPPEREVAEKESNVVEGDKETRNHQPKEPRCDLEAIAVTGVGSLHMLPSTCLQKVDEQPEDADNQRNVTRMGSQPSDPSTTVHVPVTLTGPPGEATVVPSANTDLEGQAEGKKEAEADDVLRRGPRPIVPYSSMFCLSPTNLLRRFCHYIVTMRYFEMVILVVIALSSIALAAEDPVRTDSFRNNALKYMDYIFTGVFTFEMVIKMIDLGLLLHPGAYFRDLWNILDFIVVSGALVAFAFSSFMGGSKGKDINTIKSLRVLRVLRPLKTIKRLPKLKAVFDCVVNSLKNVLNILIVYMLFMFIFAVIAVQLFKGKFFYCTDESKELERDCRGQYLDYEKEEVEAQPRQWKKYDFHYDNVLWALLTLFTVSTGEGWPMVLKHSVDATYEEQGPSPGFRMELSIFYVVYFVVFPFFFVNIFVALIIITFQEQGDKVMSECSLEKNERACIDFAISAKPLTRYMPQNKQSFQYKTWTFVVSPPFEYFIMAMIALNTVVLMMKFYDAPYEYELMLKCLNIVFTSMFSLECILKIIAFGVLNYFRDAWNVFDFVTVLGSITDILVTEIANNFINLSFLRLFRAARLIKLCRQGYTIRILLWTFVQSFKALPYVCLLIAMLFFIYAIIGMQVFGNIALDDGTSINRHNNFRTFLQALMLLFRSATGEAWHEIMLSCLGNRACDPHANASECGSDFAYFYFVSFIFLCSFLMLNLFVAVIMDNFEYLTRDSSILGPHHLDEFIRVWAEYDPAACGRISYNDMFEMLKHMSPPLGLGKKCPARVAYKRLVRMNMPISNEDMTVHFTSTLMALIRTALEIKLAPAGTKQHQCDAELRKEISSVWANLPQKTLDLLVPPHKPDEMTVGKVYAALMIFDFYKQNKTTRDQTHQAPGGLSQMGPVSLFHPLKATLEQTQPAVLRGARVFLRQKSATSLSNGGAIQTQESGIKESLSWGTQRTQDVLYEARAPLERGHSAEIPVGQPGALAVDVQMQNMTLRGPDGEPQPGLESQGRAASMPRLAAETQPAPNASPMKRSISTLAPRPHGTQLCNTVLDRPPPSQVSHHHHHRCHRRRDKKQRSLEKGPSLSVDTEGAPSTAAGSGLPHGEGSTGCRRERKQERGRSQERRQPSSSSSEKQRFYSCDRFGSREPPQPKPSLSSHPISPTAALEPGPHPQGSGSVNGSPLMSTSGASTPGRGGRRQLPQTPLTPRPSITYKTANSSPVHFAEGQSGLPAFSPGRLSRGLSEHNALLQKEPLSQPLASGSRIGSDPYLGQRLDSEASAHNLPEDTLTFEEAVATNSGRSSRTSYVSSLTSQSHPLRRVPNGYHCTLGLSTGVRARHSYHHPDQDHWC

Turning to `Cc1cc(NC(=O)Nc2ccc(F)c(F)c2)n(-c2ccccc2)n1` [VU0456810, 1-(3,4-difluorophenyl)-3-(3-methyl-1-phenyl-1H-pyrazol-5-yl)urea], the “rotarod performance compared to vehicle” value in the data set “Rotarod test” was “small and insignificant decrease”. Besides, in “Rotarod test” (insignificant (p=0.7)), the “decrease in performance on the rotarod vs vehicle” value turned out to be 14%. The “latency of seizure onset” value in data set [1] is reported as “robust increase; also recorded: highly significant delays in seizure onset”. Also, the inhibition at 10 µM on Adrenergic α1B is 1%; on Adrenergic β2, -5%; at Andreogen, 0%; at N-Type Ca channel, 5%; on Cannabinoid CB1, 8%; at Dopamine D3, 2%. Further, the inhibition at 10 µM at GABAB1A is 11%; at Leukotriene it was 4%; on Melatonin MT1 it was 11%; at Opiate (KOP), 1%; on Opiate (MOP), 21%; on Sigma σl, less than 50%. Moreover, the inhibition at 10 µM at Transporter, DAT is 12%. The “% Inhibition” value was 1% in [2]; 3% in [3]; 1% in the data set on Glutamate (NMDA, PCP); 0% in the data set on Nicotinic acetylcholine [4]; 7% in the data set on Nicotinic acetylcholine [5]; 49% on Sigma σl (10 μM). In the data set with Thyroid hormone, the “% Inhibition” value is reported as 8%.
